In brackets after ≈: the same amount, converted by molar mass.

Results on 21 compounds are retold here after patent US5733918A, “Condensed-Indan derivatives and pharmaceutically acceptable salts thereof” (Taiho Pharmaceutical Co., Ltd., priority 1994, dated 1998).

In assay [1] the test system is P388 mouse leukemia cells. The assay can be described thus: Cytotoxicity against P388 mouse leukemia cells (crystal violet staining). The class given is cell-based. The settings on record: 72 h, 3 days incubation, cell number reduced to 50% of control. As for the experimental part:
P388 mouse leukemia cells were plated into 96-well plate at the density of 2×10^3 cells/well. The compounds of the invention were dissolved in purified water or dimethylsulfoxide and the solution was diluted with medium to various concentrations and added to respective wells. After the plate was incubated for 3 days, the cultures were fixed with glutaraldehyde and the number of survived cells were determined by crystal violet staining method.

Assay [2] concerns P388 mouse leukemia cells. The assay can be described thus: Antineoplastic action: increase in life span of CDF1 mice bearing P388 mouse leukemia cells. In kind it is in vivo. The following applies: P388, ip.
Protocol: P388 mouse leukemia cells (1×10^6 cells/mouse) were injected intraperitoneally into CDF1 mouse. Each of the compound of the invention dissolved in 5% glucose or 5% dimethylsulfoxide at each of predetermined concentration was injected intraperitoneally on 1 and 5 days after injection. The antitumor activity thereof was evaluated as percentage of increase in life span (ILS %) compared to the mean survival of the untreated control group.
The mark [3] stands for this setting: i.p. on 1 and 5 days after tumor injection, CDF1 mouse, vs untreated control.

As usually defined, the IC50 is the midpoint of a concentration-inhibition curve. A high value points to weaker potency. The ILS is how much longer treated animals lived than controls. The compound `COc1ccc2c3c(c(NCCN(C)C)nc2c1)C(=O)c1ccccc1-3` [Compound 1-a] came in with an IC50 in assay [1] of 24 ng/mL (≈ 69.1 nM). The ILS at 100 mg/kg/day in assay [2] (setting [3]) came out at 68%. In assay [1], `CN(C)CCNc1nc2cc(F)ccc2c2c1C(=O)c1ccccc1-2.Cl.Cl` [Compound 2, 6-(((dimethylamino)ethyl)amino)-3-fluoro-7H-indeno[2,1-c]quinoline-7-on dihydrochloride] displayed an IC50 of 4.8 ng/mL. Also, the ILS at 67 mg/kg/day in assay [2] (setting [3]) was determined as 85%. In the case of `CN(C)CCNc1nc2cc(O)ccc2c2c1C(=O)c1ccccc1-2` [Compound 3-a], the ILS at 10 mg/kg/day in assay [2] (Mus musculus, read-out: Increase in life span (ILS %)) came to 94.4%. In turn, `CCN(CC)CCNc1nc2cc(O)ccc2c2c1C(=O)c1ccccc1-2` [Compound 7] registered an IC50 in assay [1] of 0.65 ng/mL (≈ 1.8 nM). For the same compound, the ILS at 44 mg/kg/day in assay [2] (setting [3]) stood at 223%. Regarding `CN1CCN(c2nc3cc(O)ccc3c3c2C(=O)c2ccccc2-3)CC1` [Compound 9-a], in assay [1], the midpoint of inhibition, the IC50, lay at 7.4 ng/mL (≈ 21.4 nM). The same compound had an ILS at 150 mg/kg/day in assay [2] (setting [3]) of 60%. Turning to `CN(C)CCNc1nc2cc(O)ccc2c2c1C(=O)c1cc(Cl)ccc1-2` [Compound 23-a], inhibition in assay [1] was half-maximal at 0.11 ng/mL (≈ 0.299 nM) (IC50). For `O=C1c2ccccc2-c2c1c(NCCN1CCCC1)nc1cc(O)ccc21` [Compound 26-a], 0.42 ng/mL (≈ 1.17 nM) corresponded to half-maximal inhibition in assay [1] (IC50). Moreover, in assay [2] (setting [3]), the increase in lifespan (ILS) at 30 mg/kg/day was determined as 70.6%.

In assay [1], `CN(C)CCNc1nc2ccccc2c2c1C(=O)c1ccccc1-2` [Compound 28-a] came in with an IC50 of 2 ng/mL (≈ 6.3 nM). The same compound came in with an ILS at 67 mg/kg/day in assay [2] (setting [3]) of 180%. `CN(C)CCNc1nc2ccc(O)cc2c2c1C(=O)c1ccccc1-2` [Compound 31-a] returned an IC50 in assay [1] of 6 ng/mL (≈ 18 nM). Also, the ILS at 30 mg/kg/day in assay [2] (setting [3]) stood at 48.5%. `CN(C)CCNc1nc2cc(N)ccc2c2c1C(=O)c1ccccc1-2` [Compound 41-a] returned an IC50 in assay [1] of 11 ng/mL (≈ 33.1 nM). The ILS at 67 mg/kg/day in assay [2] (setting [3]) came out at 306%. Compound `CN(C)CCNc1nc2ccccc2c2c1C(=O)c1cc(O)ccc1-2` [Compound 47-a] showed an IC50 in assay [1] of 1.3 ng/mL (≈ 3.9 nM). Further, the ILS at 44 mg/kg/day in assay [2] (setting [3]) amounted to 130%.

With `CN(C)CCNc1nc2ccccc2c2c1C(=O)c1ccc(O)cc1-2` [Compound 49-a], in assay [1], the 50% inhibitory concentration (IC50) came out at 2 ng/mL (≈ 6 nM). Also, the ILS at 150 mg/kg/day in assay [2] (setting [3]) was found to be 66.7%. Regarding `CN(C)CCNc1nc2cc(O)ccc2c2c1C(=O)c1cc(O)ccc1-2` [Compound 50-a], half-maximal inhibition in assay [1] (IC50) was put at 1.1 ng/mL (≈ 3.15 nM). The same compound came in with an increase in life span (ILS) at 20 mg/kg/day in assay [2] (dose 20 mg/kg/day, i.p. on 1 and 5 days after tumor injection, CDF1 mouse, vs untreated control) of 45.2%.

In assay [1], `O=C1c2ccccc2-c2c1c(NCCNCCO)nc1cc(O)ccc21` [Compound 55] came in with an IC50 of 0.95 ng/mL (≈ 2.72 nM).

`CNCCNc1nc2cc(O)ccc2c2c1C(=O)c1ccccc1-2.Cl.Cl.Cl` [Compound 60, 6-(((methylamino)ethyl)amino)-3-hydroxy-7H-indeno[2,1-c]quinoline-7-on-trihydrochloride] had a 50% inhibitory concentration (IC50) in assay [1] of 0.66 ng/mL. Compound `CN(C)CCOc1nc2cc(O)ccc2c2c1C(=O)c1ccccc1-2` [Compound 62] had an IC50 in assay [1] of 0.3 ng/mL (≈ 0.897 nM).

`CN(C)CCOc1nc2ccccc2c2c1C(=O)c1cc3c(cc1-2)OCO3` [Compound 64-a] displayed an IC50 in assay [1] of 0.87 ng/mL (≈ 2.4 nM). The ILS at 67 mg/kg/day in assay [2] (setting [3]) was 153%. Compound `CN(C)CCNc1nc2ccccc2c2c1C(=O)c1cc3c(cc1-2)OCO3` [Compound 66-a] came in with an IC50 in assay [1] of 1.2 ng/mL (≈ 3.32 nM). In assay [2] (setting [3]), this compound gave an ILS at 44 mg/kg/day of 141%. On to `CN(C)CCNc1nc2cc3c(cc2c2c1C(=O)c1ccccc1-2)OCO3` [Compound 73-a], for which the IC50 in assay [1] was 13 ng/mL (≈ 36 nM). The compound further displayed an ILS at 44 mg/kg/day in assay [2] (setting [3]) of 129%.

`CN1CCN(c2nc3c(c4ccccc24)-c2ccccc2C3=O)CC1` [Compound 75, 6-(1-(4-methylpiperazinyl))-7H-indeno[2,1-c]isoquinoline-7-on] showed an IC50 in assay [1] of 450 ng/mL (≈ 1370 nM).

With `CN(C)CCN(C)c1nc2c(c3ccccc13)-c1ccccc1C2=O` [Compound 76], the IC50 in assay [1] is 160 ng/mL (≈ 483 nM). The ILS at 100 mg/kg/day in assay [2] (setting [3]) stood at 75%.
